molecular target: T1, human CPT1A (Homo sapiens, UniProt P50416); experiment: Human CPT1A LC/MS assay; format: biochemical; conditions: human CPT1A LC/MS assay, dose response format
T1 construct: made in house; host or cells: Saccharomyces cerevisiae (pESC-trp) or cultured mammalian cells (pCDNA3.1); mitochondrial extract
T1 sequence (P50416 1-773): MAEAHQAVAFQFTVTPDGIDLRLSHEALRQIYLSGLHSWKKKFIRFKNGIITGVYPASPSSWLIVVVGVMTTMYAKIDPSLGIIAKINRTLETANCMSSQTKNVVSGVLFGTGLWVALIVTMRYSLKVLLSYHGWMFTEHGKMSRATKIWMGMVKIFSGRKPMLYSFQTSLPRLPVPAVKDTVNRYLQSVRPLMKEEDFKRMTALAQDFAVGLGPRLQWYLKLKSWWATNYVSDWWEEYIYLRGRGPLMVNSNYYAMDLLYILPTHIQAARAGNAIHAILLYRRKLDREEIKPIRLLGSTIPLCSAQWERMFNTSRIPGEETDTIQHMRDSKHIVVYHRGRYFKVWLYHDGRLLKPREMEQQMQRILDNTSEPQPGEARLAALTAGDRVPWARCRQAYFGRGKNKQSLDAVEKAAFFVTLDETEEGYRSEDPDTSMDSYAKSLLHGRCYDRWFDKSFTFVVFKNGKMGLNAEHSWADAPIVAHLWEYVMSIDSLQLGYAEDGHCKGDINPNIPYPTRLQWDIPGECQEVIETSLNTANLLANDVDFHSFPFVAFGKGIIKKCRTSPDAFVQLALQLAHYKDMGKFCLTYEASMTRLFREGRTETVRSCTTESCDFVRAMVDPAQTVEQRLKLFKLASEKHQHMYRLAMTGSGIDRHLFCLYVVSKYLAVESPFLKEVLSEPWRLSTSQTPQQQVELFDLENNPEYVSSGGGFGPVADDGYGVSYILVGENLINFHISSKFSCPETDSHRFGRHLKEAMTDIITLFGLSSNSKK
Method in brief: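 Mitochondrial extracts (1.6 μg protein) expressing human CPT1A, preincubated 10 min with compound in 20% DMSO, then reacted 10 min at room temperature with 20 μM palmitoyl-CoA, 50 μM L-carnitine (pH 7.5). Palmitoyl carnitine was quantified by LC/MS against a myristoyl carnitine standard; 16-point, 2-fold titrations gave dose response.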

`CCCCCCCCCCCCCCc1ccc(NS(=O)(=O)N[C@H](CC(=O)O)C[N+](C)(C)C)cc1` [Example S90, (R)-3-(N-(4-tetradecylphenyl)sulfamoylamino)-4-(trimethylammonio)-butanoate] and `CCCCCCCCCCCCc1ccc(NS(=O)(=O)N[C@H](CC(=O)O)C[N+](C)(C)C)cc1` [Example S89, (R)-3-(N-(4-dodecylphenyl)sulfamoylamino)-4-(trimethylammonio)-butanoate] cannot be ordered by IC50: ≤ 1 µM for the first, ≤ 1 µM for the second.

First: CCCCCCCCCCOc1cccc(C(=O)N[C@H](CC(=O)[O-])C[N+](C)(C)C)c1 [Example S67, (R)-3-(3-(decyloxy)benzamido)-4-(trimethylammonio)butanoate]
Second: CCCCCCCCCCOc1ccc(C(=O)N[C@H](CC(=O)O)C[N+](C)(C)C)cc1 [Example S63, (R)-3-(4-(decyloxy)benzamido)-4-(trimethylammonio)butanoate 2,2,2-trifluoroacetate]
The IC50 of the first is higher: 10 to 100 µM for the first, ≤ 1 µM for the second.

First: CCCCCCCOc1ccc(NC(=O)N[C@H](CC(=O)[O-])C[N+](C)(C)C)cc1 [Example S10, (R)-3-(3-(4-(heptyloxy)phenyl)ureido)-4-(trimethylammonio)butanoate]
Second: CCCCCCCCc1ccc(NC(=O)N[C@H](CC(=O)[O-])C[N+](C)(C)C)cc1 [Example S7, (R)-3-(3-(4-octylphenyl)ureido)-4-(trimethylammonio)butanoate]
The IC50 of the first is higher: 10 to 100 µM for the first, 1 to 10 µM for the second. The second is the more potent here.

`CCCCCCCCCCc1ccc(C(=O)N[C@H](CC(=O)[O-])C[N+](C)(C)C)cc1` [Example S66, (R)-3-(4-decylbenzamido)-4-(trimethylammonio)butanoate] and `CCCCCCCCCCc1ccc(S(=O)(=O)N[C@H](CC(=O)O)C[N+](C)(C)C)cc1` [Example S75, (R)-3-carboxy-2-(4-decylphenylsulfonamido)-N,N,N-trimethylpropan-1-aminium 2,2,2-trifluoroacetate] cannot be ordered by IC50: ≤ 1 µM for the first, 1 to 10 µM for the second.
